Test results: ChEMBL document CHEMBL4382235, “Design, synthesis and biological evaluation of novel 1-phenyl phenanthridin-6(5H)-one derivatives as anti-tumor agents targeting TOPK” (Eur J Med Chem, 2019)

Test system: HCT-15
Assay: cells
Conditions: Homo sapiens, HCT-15, 72 h
Description: Antiproliferative activity against human HCT15 cells after 72 hrs by MTT assay

| IC50 | SMILES |
| --- | --- |
| 398 nM | Cc1cc(O)c(-c2ccc(C3(CN)CC3)cc2)c2c1[nH]c(=O)c1ccccc12 |
| 337 nM | Cc1cc(O)c(-c2ccc([C@@H](C)CN(C)C)cc2)c2c1[nH]c(=O)c1c(C)cccc12 |
| 301 nM | Cc1cc(O)c(-c2ccc([C@@H](C)CN)cc2)c2c1[nH]c(=O)c1c(C)cccc12 |
| 96.7 nM | Cc1cc(O)c(-c2ccc([C@@H](C)N)cc2)c2c1[nH]c(=O)c1c(O)cccc12 |
| > 1000 nM | Cc1cc(O)c(-c2ccc([C@@H](C)N)cc2)c2c1[nH]c(=O)c1ccccc12 |
| 505 nM | Cc1cc(O)c(-c2ccc([C@@H](C)N)cc2)c2c1[nH]c(=O)c1c(C)cccc12 |

The next lines start with the compound.

| SMILES | IC50 |
| --- | --- |
| Cc1ccc2c(=O)[nH]c3c(C)cc(O)c(-c4ccc([C@@H](C)N(C)C)cc4)c3c2c1 | 467 nM |
| Cc1ccc2c(=O)[nH]c3c(C)cc(O)c(-c4ccc([C@@H](C)CN(C)C)cc4)c3c2c1 | 501 nM |
| C[C@@H](CN(C)C)c1ccc(-c2c(O)cc(Cl)c3[nH]c(=O)c4ccccc4c23)cc1 | > 1000 nM |
| Cc1cc(O)c(-c2ccc([C@@H](C)CN)cc2)c2c1[nH]c(=O)c1c(F)cccc12 | > 1000 nM |
| COc1cc(C)c2[nH]c(=O)c3ccccc3c2c1-c1ccc([C@@H](C)CN)cc1 | 278 nM |

Test system: A549
Assay: cells
Conditions: Homo sapiens, A549, 72 h
Description: Antiproliferative activity against human A549 cells after 72 hrs by MTT assay

| IC50 | SMILES |
| --- | --- |
| 211 nM | Cc1cc(O)c(-c2ccc(C3(CN)CC3)cc2)c2c1[nH]c(=O)c1ccccc12 |
| 287 nM | Cc1cc(O)c(-c2ccc([C@@H](C)CN(C)C)cc2)c2c1[nH]c(=O)c1c(C)cccc12 |
| 25.9 nM | Cc1cc(O)c(-c2ccc([C@@H](C)CN)cc2)c2c1[nH]c(=O)c1c(C)cccc12 |
| 82.5 nM | Cc1cc(O)c(-c2ccc([C@@H](C)N)cc2)c2c1[nH]c(=O)c1c(O)cccc12 |
| 920 nM | Cc1cc(O)c(-c2ccc([C@@H](C)N)cc2)c2c1[nH]c(=O)c1ccccc12 |
| 187 nM | Cc1cc(O)c(-c2ccc([C@@H](C)N)cc2)c2c1[nH]c(=O)c1c(C)cccc12 |

The next lines start with the compound.

| SMILES | IC50 |
| --- | --- |
| Cc1ccc2c(=O)[nH]c3c(C)cc(O)c(-c4ccc([C@@H](C)N(C)C)cc4)c3c2c1 | 317 nM |
| Cc1ccc2c(=O)[nH]c3c(C)cc(O)c(-c4ccc([C@@H](C)CN(C)C)cc4)c3c2c1 | 466 nM |
| C[C@@H](CN(C)C)c1ccc(-c2c(O)cc(Cl)c3[nH]c(=O)c4ccccc4c23)cc1 | > 1000 nM |
| Cc1cc(O)c(-c2ccc([C@@H](C)CN)cc2)c2c1[nH]c(=O)c1c(F)cccc12 | 110 nM |
| COc1cc(C)c2[nH]c(=O)c3ccccc3c2c1-c1ccc([C@@H](C)CN)cc1 | 360 nM |

Test system: HCT-116
Assay: cells
Conditions: Homo sapiens, HCT-116, 72 h
Description: Antiproliferative activity against human HCT116 cells after 72 hrs by MTT assay

| IC50 | SMILES |
| --- | --- |
| 231 nM | Cc1cc(O)c(-c2ccc(C3(CN)CC3)cc2)c2c1[nH]c(=O)c1ccccc12 |
| 419 nM | Cc1cc(O)c(-c2ccc([C@@H](C)CN(C)C)cc2)c2c1[nH]c(=O)c1c(C)cccc12 |
| 75.8 nM | Cc1cc(O)c(-c2ccc([C@@H](C)CN)cc2)c2c1[nH]c(=O)c1c(C)cccc12 |
| 102 nM | Cc1cc(O)c(-c2ccc([C@@H](C)N)cc2)c2c1[nH]c(=O)c1c(O)cccc12 |
| > 1000 nM | Cc1cc(O)c(-c2ccc([C@@H](C)N)cc2)c2c1[nH]c(=O)c1ccccc12 |
| 242 nM | Cc1cc(O)c(-c2ccc([C@@H](C)N)cc2)c2c1[nH]c(=O)c1c(C)cccc12 |

More lines, now with the values behind:

| SMILES | IC50 |
| --- | --- |
| Cc1ccc2c(=O)[nH]c3c(C)cc(O)c(-c4ccc([C@@H](C)N(C)C)cc4)c3c2c1 | 274 nM |
| Cc1ccc2c(=O)[nH]c3c(C)cc(O)c(-c4ccc([C@@H](C)CN(C)C)cc4)c3c2c1 | 385 nM |
| C[C@@H](CN(C)C)c1ccc(-c2c(O)cc(Cl)c3[nH]c(=O)c4ccccc4c23)cc1 | > 1000 nM |
| Cc1cc(O)c(-c2ccc([C@@H](C)CN)cc2)c2c1[nH]c(=O)c1c(F)cccc12 | 438 nM |
| COc1cc(C)c2[nH]c(=O)c3ccccc3c2c1-c1ccc([C@@H](C)CN)cc1 | 357 nM |
